US20230035127A1, “CULTURE AND DIFFERENTIATION OF PLURIPOTENT STEM CELLS” (University of Maryland, College Park, priority 2021, published 2023)
Several values for one entry are separate records, joined by “and”; a condition that tells them apart may be missing. Equal values may be shown once. Entries after “also recorded” stand apart in the source; their conditions may differ.

Columns and labels:
human eiPSCs [1] = test: 3D cardiac differentiation of eiPSC spheroids: percentage of beating cardiac spheroids and outset beating time; type: cell-based; details: for beating efficiency of 3D cardiac differentiation: PSCs
Experimental: Cardiac differentiation of the 3D eiPSC spheroids was conducted by modulating the canonical Wnt signaling pathway with agonists and antagonists sequentially, which has also been used for differentiation of human PSCs into cardiomyocytes under 2D culture. Two Wnt agonists, CHIR99021 (8 μM) and 6-bromoindirubin-3′-oxime (BIO, 2 μM), were supplemented into the culture medium on day 0, to up-regulate the Wnt signaling and induce iPSC differentiation into mesoderm for 1 day. On day 1, two Wnt antagonists, XAV939 (10 μM) and KY02111 (10 μM), were used to suppress the Wnt signaling for inducing cardiac commitment of the mesoderm cells in the following 6 days to obtain cardiac spheroids. Afterward, the cardiac spheroids were cultured in pure cardiac maintenance medium for maturation until day 13.5. […] In other words, the outset beating time (OBT) of the cardiac spheroids was synchronized to be within ˜24 h for the 1 μM RI group. No significant change in the beating percentage from day 7.5 to day 13.5 was observed. In contrast, in the 10 μM RI group, only ˜8% and ˜44% of cardiac spheroids beat on days 6.5 and 13.5, respectively (FIG. 4A, on day 13.5). […] Therefore, the OBT ranges over at least a week, indicating high heterogeneity of the cardiac spheroids in the 10 μM RI group as the beating is a direct and visible indicator of functional maturity of the cardiac spheroids.
(§1) To obtain 3D iPSC spheroids, the iPSC colonies under 2D culture at ˜80% confluence were treated with Versene for 2 min, rinsed with PBS, and further detached from the substrate by gentle pipetting. The detached iPSCs were re-suspended in mTeSR1 with Rock inhibitor (Y27632) at 0, 1, 5, or 10 μM. Afterward, the medium was supplemented with 0.35% (v/v) methylcellulose. The cell suspension (12 ml) containing ˜4×10^6 cells was pushed through a cell strainer with 100 μm mesh size. Later, the suspension of iPSC clumps was transferred into a petri dish (diameter: 10 cm) for culture in a humidified incubator at 37° C. and 5% CO2 for 2 days, during which the 2D iPSC clumps grew into 3D iPSC spheroids. Then, the medium was changed to mTeSR1 (supplemented with 0.35% methylcellulose) with no rock inhibitor, to further culture for 2 days before cardiac differentiation. To determine the number of cells per eiPSC spheroid, roughly equal numbers of the spheroids from either the 1 or 10 μM RI group were pooled together and trypsinized to dissociate the cells. The dissociated cells were then resuspended in 1.4 ml of the aforementioned iPSC maintenance medium and the cell number was counted using a hemocytometer. Three independent runs with 282, 260, and 256 spheroids for the 1 μM RI group and 273, 298, and 286 spheroids for the 10 μM RI group were conducted.
The eiPSC spheroids obtained after 4 days of culture on day 0 were induced into mesoderm by up-regulation of the Wnt signaling pathway using 8 μM CHIR99021 and 2 μM GSK inhibitor 6-bromoindirubin-3′-oxime (BIO) in the mesoderm induction medium for 1 day. The mesoderm induction medium was a mixture of DMEM/F12 and α-MEM (v/v, 1:1), containing 2% Knockout Serum Replacement (KOSR), 1 mM L-glutamine, 1% MEM non-essential amino acids (NEAA), and 0.1 mM β-mercaptoethanol. After 1 day, the spheroids were induced for cardiac commitment by down-regulating the Wnt signaling pathway using 10 μM KY02111 and 10 μM XAV939 in the cardiac maintenance medium for 6 days with the medium being changed every other day. The cardiac maintenance medium was a mixture of RPMI1640 and α-MEM (v/v, 1:1) containing 5% fetal bovine serum (FBS). Starting from day 8, the cardiac maintenance medium without KY02111 and XAV939 was used, and it was changed every other day for cardiac maturation. Images and videos of the resultant cardiac spheroids were taken using the Zeiss LSM 710 microscope before medium change.

IMR90-1 human iPSCs = test: 3D cardiac differentiation of IMR90-1 iPSCs: beating cardiac spheroids; type: cell-based; details: for percentage of beating IMR90-1 cardiac spheroids: 10 μM RI
Experimental: Another commonly utilized iPSC line (IMR90-1) was tested to confirm that the improved cardiac differentiation of iPSCs with low RI for 3D culture before differentiation is not because of the eiPSCs used. The beating of the resultant IMR90-1 cardiac spheroids peaked at ˜98% on day 7.5 with the OBT being synchronized within ˜1 day for the 1 μM RI group (FIG. 19A). […] This was consistent with the flow cytometry data of the cells in the cardiac spheroids collected on day 12.5, showing that 91% and 32% of the cells were positive for the cardiac-specific protein cTnT (that are crucial for beating) in the 1 and 10 μM RI groups, respectively (FIG. 19B-C). Furthermore, cells in the cardiac spheroids that were positive for neural-specific maker MUSASHI were negligible in the 1 μM RI group, while ˜20% cells in the cardiac spheroids from the 10 μM RI group were MUSASHI positive (FIG. 19B-C).
as §1
The eiPSC spheroids obtained after 4 days of culture on day 0 were induced into mesoderm by up-regulation of the Wnt signaling pathway using 8 μM CHIR99021 and 2 μM GSK inhibitor 6-bromoindirubin-3′-oxime (BIO) in the mesoderm induction medium for 1 day. The mesoderm induction medium was a mixture of DMEM/F12 and α-MEM (v/v, 1:1), containing 2% Knockout Serum Replacement (KOSR), 1 mM L-glutamine, 1% MEM non-essential amino acids (NEAA), and 0.1 mM β-mercaptoethanol. […]

[2] = tested on: eiPSC-derived cardiac spheroids; test: Re-plating of cardiac spheroids in regular cell culture petri dish (attachment); type: cell-based, human; details: day 13.5 spheroids, 3 days after re-plating
Experimental: After 3 days, ˜61% of the cardiac spheroids in the 10 μM RI group attached to the 2D surface, and some of the cells migrated out of the spheroids appeared to be neuron-like with neurite-like processes (FIG. 4B-C). […] To confirm the aforementioned observation of neuron-like cells in the 10 μM RI group, immunofluorescence staining of cryosectioned cardiac spheroids on day 12.5 in the 1 and 10 μM RI groups was conducted. […] Therefore, studies were performed to further understand the mechanisms of the improved cardiac differentiation with the reduced RI.

human eiPSCs [3] = test: 2D re-plating of 3D iPSC spheroids on Matrigel (colony morphology, immunostaining); type: cell-based; details: day 0 spheroids cultured 2 days in 2D
Experimental: To further confirm the aforementioned difference in morphology and protein expression between the 1 and 10 μM RI groups, the 3D iPSC spheroids obtained with 0, 1, and 10 μM RI concentrations collected on day 0 (i.e., after 4-day culture in 3D) were plated on the 2D surface coated with Matrigel in Petri dish (i.e., under conventional 2D culture) and cultured for 2 days to observe the cell morphology.

eiPSCs = test: Survival/yield of PSCs in 3D suspension culture; type: cell-based, human; details: for improvement of cell yield (number of viable cells): 3D culture
Experimental: as §1

## C[C@@H](N)[C@H]1CC[C@H](C(=O)Nc2ccncc2)CC1.Cl.Cl (relative stereo) [RI, (+)-(R)-trans-4-(1-aminoethyl)-N-(4-pyridyl) cyclo-hexanecarboxamide dihydrochloride]
Human eiPSCs [1]; 1 μM RI, in about 7 days
  beating efficiency of 3D cardiac differentiation: more than 95%
Human eiPSCs [1]; 1 μM RI, day 6.5
  percentage of beating cardiac spheroids: ~48%
Human eiPSCs [1]; 5 μM RI, day 9.5
  percentage of beating cardiac spheroids: ~61%
Human eiPSCs [1]; 10 μM RI, in 14 days
  beating efficiency of 3D cardiac differentiation: less than 50%
Human eiPSCs [1]; 10 μM RI, day 6-6.5 to day 13.5
  outset beating time (OBT): more than 7 days
Human eiPSCs [1]; 10 μM RI, day 6.5
  percentage of beating cardiac spheroids: ~8%
Human eiPSCs [1]; 10 μM RI, day 13.5, dihydrochloride
  percentage of beating cardiac spheroids: ~44% and 44.3%
IMR90-1 human iPSCs; 1 μM RI
  outset beating time (OBT) synchronized within: ≤ 1 days
  time within which cardiac spheroids start to beat: ≤ 24 h
IMR90-1 human iPSCs; day 7.5
  percentage of beating IMR90-1 cardiac spheroids: 11.5%
IMR90-1 human iPSCs; in a week, day 13.5
  percentage of beating IMR90-1 cardiac spheroids: 34.1%
[2]; 5 μM RI
  percentage of cardiac spheroids attached to the 2D surface: ~41%
[2]; 10 μM RI, dihydrochloride
  percentage of cardiac spheroids attached to the 2D surface: ~61% and > 60%
Human eiPSCs [3]; 1 μM RI
  immunostaining of neural and pluripotency markers in re-plated colonies: positive expression of OCT-4 and NANOG and were negative for NESTIN and TUJ-1
  morphology of re-plated eiPSC colonies: typical with tightly packed cells
Human eiPSCs [3]; 10 μM RI
  immunostaining of neural and pluripotency markers in re-plated colonies: positive staining of neural markers (NESTIN and TUJ-1) and weakened/no staining of pluripotency markers (OCT-4 and NANOG)
  morphology of re-plated eiPSC colonies: more loosely packed
eiPSCs; 1 μM RI compared to 0 μM RI control, day 0, dihydrochloride
  cell survival and yield: significantly more; also recorded: significantly increases
eiPSCs; 10 μM RI compared to 0 μM RI
  improvement of cell yield (number of viable cells): about 3 times
eiPSCs; 10 μM RI compared to 1 μM RI
  improvement of cell yield (number of viable cells): ~2 times
